Results reported in publication PMC4704819, “Honey Bee Allatostatins Target Galanin/Somatostatin-Like Receptors and Modulate Learning: A Conserved Function?” (PLoS ONE, 2016).
Entries after “also recorded” stand apart in the source; their conditions may differ. Where a SMILES comes first, the peptide text is derived from it. Bridges are numbered along the chain shown (N, C = ends).

What was measured:
[1] = system: honey bees (Apis mellifera); assay: Olfactory generalization test; assay type: in vivo; details: 1μM, injected immediately after conditioning, test 1h later, N = 66, 75, 72; for response to nonanal vs control (GLM coefficient ± standard error): ASTA p = 0.38, ASTC p = 0.41, ASTCC p = 0.30; for response to 1-hexanol vs control (GLM coefficient ± standard error): ASTA p = 0.91, ASTC p = 0.96, ASTCC p = 0.56; for response to 1-nonanol (CS) vs control (GLM coefficient ± standard error): ASTA p = 0.96, ASTC p = 0.37, ASTCC p = 0.10
Description: (§1) The vehicle for allatostatins was a saline solution made of PBS containing the protease blocker, 1 mM PMSF (prepared from a 30mM stock solution in 100% ethanol, final concentration of ethanol 3.3%).
(§2) The allatostatins were injected into the head haemolymph after penetrating the median ocellus, either 1 hour before olfactory conditioning or sucrose responsiveness assessment, or immediately after olfactory conditioning. All injections were performed under a binocular microscope. A micromanipulator-controlled Hamilton syringe (Nanofil, equipped with a NF33BV2 needle, WPI) was used to inject approximately 200 nl of peptide solution. To make sure that the solution was properly injected, it was pushed out of the syringe so that a drop was visible and then the drop was put in contact with the haemolymph where it was quickly absorbed thanks to the respiratory movements of the bee. Any bee with excessive bleeding was discarded.
Bees that learned to respond to the conditioned stimulus (CS) at the end of conditioning were submitted to a generalization test 1h later. In addition to 1-nonanol (the CS), two novel odorants (nonanal and 1-hexanol) were presented: these were selected according to their respective high and low levels of perceptual similarity with 1-nonanol. All odorants were presented without reinforcement with sucrose. The order of odorant presentations varied across individuals, and the integrity of the reflexive response to sucrose was checked at the end of the test.
(§3) Functional data (receptor-mediated calcium, cAMP signals and binding) were plotted and regression curves were fitted using the GraphPad Prism software (San Diego, CA). The learning data were analyzed with generalized linear effects modeling (GLM) for binomial data using the R package lme4 [67]. Response levels recorded in the last conditioning trial were used to assess the effect of treatment on learning. For 1-hour memory and generalization tests, effects of allatostatin treatment were compared for each odor tested. Generalized linear mixed effects modeling (GLMM) was also used to analyze responsiveness to sucrose, with concentration and treatment as fixed factors and the bee identity and solution presented (either sucrose or water) as random factors. […] All statistics were generated in R [68].

[2] = system: mock-transfected HEK293 cells; assay: Intracellular cAMP reporter assay, mock-transfected HEK293 cells (empty vector); assay type: cell-based, human; details: CRE-luciferase, IBMX, ASTCC Fig 5F, ASTA and ASTC data not shown
Description: For intracellular cAMP measurements, cells were bathed in trypsin EDTA and collected, then suspended in fresh DMEM. Transfections with pRK5-ApimeAstC-R, pRK5-ApimeAstA-R or empty pRK5 vector were carried out in 15 ml Falcon tubes. Transfection medium for HEK293 cells was prepared using the Lipofectamine LTX kit (Invitrogen) with 2.5 ml Opti-MEM® (Gibco), 12.5 μl Plus™ Reagent and 4 μg of ApimeASTC-R (or ApimeASTA-R, or empty) expression construct, and 2 μg of CRE(6x)-Luc plasmid. The luciferase ORF, downstream of six tandem repeats of a cyclic AMP responsive element (CRE), in front of a minimum collate promoter, was used as a reporter gene (this reporter plasmid has been used by others)
We followed a previousy published protocol: HEK293 cells in Dulbecco's Modified Eagles Medium nutrient mixture F12-Ham (DMEM/F12, Sigma–Aldrich) supplemented with 10% heat-inactivated fetal bovine serum (Gibco), 100 IU/ml penicillin, 100 μg/ml streptomycin (Gibco) were maintained in an incubator at 37°C with constant supply of 5% CO2, until they reached 60–80% confluence. Cells were then bathed in trypsin EDTA (Gibco) until rounded. The flask was then tapped to loosen the cells, which were subsequently washed off with 5 ml DMEM/F12. The cells were gently centrifuged at 800 rpm for 5 minutes and carefully suspended in fresh DMEM, which was divided in two for transfection with receptor constructs or empty vectors. After 5 min at room temperature, 30 μl LTX was added. After an incubation period of 30 min at room temperature, the DNA/LTX mix was added to the cells. The cells were then aliquoted (100 μl per well) into a clear bottom 96-well plate (Greiner bio-one #655090) and incubated overnight (37°C, 5% CO2).
Prior to measuring cAMP, the cell medium was removed by carefully inverting the 96-well plate on filter paper and quickly replaced with 100 μl of DMEM/F12 without phenol red (Invitrogen), but containing 200 μM 3-isobutyl-1-methylxanthine (IBMX, Sigma–Aldrich) to prevent cAMP breakdown, as well as drugs to be tested. In each experiment, some wells were used to measure basal levels of cAMP in the cells (negative control), while others were used to measure cAMP levels in cells exposed to 10 μM forskolin analogue (NKH-477, Sigma Aldrich, positive control). […] All cells were incubated at 37°C and 5% CO2 for 3–4 h to allow transcription of the reporter gene before 100 μl of freshly reconstituted Steadylite Plus™ substrate (PerkinElmer) was added to each well. The 96-well plate was then placed in the dark for 15 min before light emission resulting from luciferase enzymatic activity was recorded. Measurements lasting 0.2 s/well were taken every 55 s for 10 cycles using a FLUOstar Omega microplate reader (BMG Labtech). Results were analyzed by means of the Omega software packages and further processed by Excel and GraphPad Prism softwares. In order to facilitate comparisons across experiments, bioluminescence levels are expressed relative to those in mock-transfected cells (transfected with the vector devoid of the receptor sequence) untreated with NKH-477, which were arbitrarily set at 100.
To test this prediction, we expressed the two receptors separately in HEK293 cells together with the luciferase reporter gene, downstream of the cAMP response element, CRE, but without exogenous G proteins.

[3] = system: honey bees (Apis mellifera); assay: Sucrose responsiveness assessment; assay type: in vivo; details: 1μM; for sensitivity to sucrose vs control (GLM coefficient ± standard error) / sensitivity to water vs control (GLM coefficient ± standard error): injected 1h before test; for sensitivity to sucrose vs control (GLM coefficient ± standard error): sucrose 0.1–30%, ASTA p = 0.76, ASTC p = 0.55, ASTCC p = 0.13, N = 35, 49, 29 (Fig 10A); for sensitivity to water vs control (GLM coefficient ± standard error): ASTA p = 0.44, ASTC p = 0.30, ASTCC p = 0.22, N = 35, 49, 29
Description: as §1, §2
Since sucrose was presented diluted in water, bees were given water ad libitum immediately before testing to ensure that their responses would be elicited by sucrose only. We followed a published protocol: six sucrose solutions of increasing concentration (0.1%, 0.3%, 1%, 3%, 10% and 30%) were presented in succession to the antennae, interspersed with water stimulations to avoid sensitization. For each animal, the presence or absence of a proboscis extension response to each stimulus was recorded.
as §3

Compound | response to nonanal vs control (GLM coefficient ± standard error) [1] | response to 1-hexanol vs control (GLM coefficient ± standard error) [1] | response to 1-nonanol (CS) vs control (GLM coefficient ± standard error) [1] | effect on cAMP levels (bioluminescence) in mock-transfected cells, in words [2] | effect on cAMP levels (bioluminescence) in mock-transfected cells, in words ([2]; listed as ASTCC) | responsiveness to sucrose or water / feeding, in words [3] | sensitivity to sucrose vs control (GLM coefficient ± standard error) [3] | sensitivity to water vs control (GLM coefficient ± standard error) [3] | effect on cAMP levels (bioluminescence) in mock-transfected cells, in words ([2]; listed as ASTC)
CC(C)[C@@H]1NC(=O)[C@H](C)NC(=O)[C@H](CC(N)=O)NC(=O)[C@H](Cc2ccccc2)NC(=O)[C@H](Cc2ccc(O)cc2)NC(=O)[C@@H](NC(=O)[C@H](CCCNC(=N)N)NC(=O)[C@H](Cc2c[nH]c3ccccc23)NC(=O)[C@H](Cc2ccc(O)cc2)NC(=O)[C@@H](NC(=O)[C@H](CCCNC(=N)N)NC(=O)CNC(=O)[C@H](CCCCN)NC(=O)[C@H](C)NC(=O)[C@H](CCC(N)=O)NC(=O)CN)C(C)C)CSSC[C@@H](C(=O)N[C@@H](Cc2ccccc2)C(=O)O)NC(=O)[C@H]([C@@H](C)O)NC1=O [Apime-ASTCC] (H-GQAKGRVYWRCYFNAVTCF-OH; disulfide 11-18; N-terminus assumed) | 0.37±0.36 | 0.20±0.34 | 0.71±0.44 | dose-dependent response; also recorded: a similar response to this peptide was apparent also in mock-transfected cells | this occurred also in mock-transfected cells | responded as well to 50% sucrose stimulations as control bees | 1.21±0.81 | 0.90±0.74 | 
CC(C)[C@@H]1NC(=O)[C@H](C)NC(=O)[C@H](CC(N)=O)NC(=O)[C@H](Cc2ccccc2)NC(=O)[C@H](C)NC(=O)[C@@H](NC(=O)[C@H](CCC(N)=O)NC(=O)[C@H](CCCCN)NC(=O)[C@H](Cc2c[nH]c3ccccc23)NC(=O)[C@H](Cc2ccc(O)cc2)NC(=O)[C@@H](N)CO)CSSC[C@@H](C(=O)N[C@@H](Cc2ccccc2)C(N)=O)NC(=O)[C@H](CO)NC1=O [Apime-ASTC] (H-SYWKQCAFNAVSCF-NH2; disulfide 6-13; N-terminus assumed) | 0.29±0.36 | 0.01±0.34 | 0.35±0.40 | No effect |  | responded as well to 50% sucrose stimulations as control bees | 0.41±0.68 | -0.71±0.68 | failed to increase intracellular cAMP levels
